Laboratory results taken from ChEMBL document CHEMBL6153110, “Peptide Double-Stapling and Arginine N-Glycosylation Triggered the Development of Therapeutic Antimicrobial Peptides Capable of Killing Drug-Resistant Bacteria in Mice” (J Med Chem, 2025).
In brackets after ≈: the same amount, converted by molar mass. Positions of bridges follow the written chain, without caps; N, C: chain ends. Non-standard residues stand in square brackets, D forms with d. Residues, ends and D or L forms follow the SMILES beside them. R8 = C=CCCCCCC[C@@](C)(N)C(=O)O; S5 = C=CCCC[C@](C)(N)C(=O)O

Columns and labels:
Type in all cases: functional
Klebsiella pneumoniae = assay: Antimicrobial activity against Klebsiella pneumoniae ATCC 13883 assessed as growth inhibition measured after 8 hrs incubation by standard broth dilution assay
Staphylococcus aureus = assay: Antimicrobial activity against methicillin-resistant Staphylococcus aureus ATCC 43300 assessed as growth inhibition measured after 8 hrs incubation by standard broth dilution assay
Pseudomonas aeruginosa = assay: Antimicrobial activity against Pseudomonas aeruginosa ATCC 27853 assessed as growth inhibition measured after 8 hrs incubation by standard broth dilution assay
Streptococcus pneumoniae = assay: Antimicrobial activity against Streptococcus pneumoniae ATCC 49619 assessed as growth inhibition measured after 8 hrs incubation by standard broth dilution assay

CC(=O)N[C@@H](CC(C)C)C(=O)N[C@@H](CCCCN)C(=O)N[C@@H](CCCNC(=N)N)C(=O)N[C@H](C(=O)N[C@@H](Cc1c[nH]c2ccccc12)C(=O)N[C@@H](CCCCN)C(=O)N[C@@H](CCCNC(=N)N)C(=O)N[C@H](C(=O)N[C@@H](Cc1ccccc1)C(=O)N[C@@H](CCCCN)C(=O)N[C@@H](CC(C)C)C(=O)N[C@@H](CC(C)C)C(=O)N[C@@H](CCCCN)C(=O)N[C@@H](CCCNC(=N)N)C(=O)N[C@@H](Cc1ccc(O)cc1)C(=O)N[C@]1(C)CCCCCC/C=C\CCC[C@@](C)(C(=O)N[C@@H](CCCNC(=N)N)C(N)=O)NC(=O)[C@@H]2CCCN2C(=O)[C@H](CCCCN)NC(=O)[C@H](CCCCN)NC(=O)[C@H](CC(C)C)NC(=O)[C@H](CCC(N)=O)NC(=O)[C@H](CCCNC(=N)N)NC1=O)C(C)C)C(C)C (Ac-LKRVWKRVFKLLKRY[R8]RQLKKP[S5]R-NH2; staple (Z) 16-23)
MIC (Klebsiella pneumoniae): 2.5 µg/mL (≈ 0.764 µM)
MIC (Staphylococcus aureus): 9.7 µg/mL (≈ 2.96 µM)
MIC (Pseudomonas aeruginosa): 2.6 µg/mL (≈ 0.794 µM)
MIC (Streptococcus pneumoniae): 19 µg/mL (≈ 5.8 µM)

CC(=O)N[C@@H](CC(C)C)C(=O)N[C@@H](CCCCN)C(=O)N[C@@H](CCCNC(=N)N)C(=O)N[C@H](C(=O)N[C@@H](Cc1c[nH]c2ccccc12)C(=O)N[C@@H](CCCCN)C(=O)N[C@@H](CCCNC(=N)N)C(=O)N[C@H](C(=O)N[C@@H](Cc1ccccc1)C(=O)N[C@@H](CCCCN)C(=O)N[C@@H](CC(C)C)C(=O)N[C@@H](CC(C)C)C(=O)N[C@@H](CCCCN)C(=O)N[C@@H](CCCNC(=N)N)C(=O)N[C@@H](Cc1ccc(O)cc1)C(=O)N[C@@H](Cc1c[nH]c2ccccc12)C(=O)N[C@@H](CCCNC(=N)N)C(=O)N[C@@H](CCC(N)=O)C(=O)N[C@@]1(C)CCC/C=C\CCC[C@@](C)(C(=O)N[C@@H](CCCNC(=N)N)C(N)=O)NC(=O)[C@@H]2CCCN2C(=O)[C@H](CCCCN)NC(=O)[C@H](CCCCN)NC1=O)C(C)C)C(C)C (Ac-LKRVWKRVFKLLKRYWRQ[S5]KKP[S5]R-NH2; staple (Z) 19-23)
MIC (Klebsiella pneumoniae): 38 µg/mL (≈ 11.5 µM)
MIC (Staphylococcus aureus): 19.1 µg/mL (≈ 5.78 µM)
MIC (Pseudomonas aeruginosa): 5 µg/mL (≈ 1.51 µM)
MIC (Streptococcus pneumoniae): 9.6 µg/mL (≈ 2.9 µM)

CC(=O)N[C@@]1(C)CCC/C=C\CCC[C@@](C)(C(=O)N[C@@H](CCCCN)C(=O)N[C@@H](CCCNC(=N)N)C(=O)N[C@H](C(=O)N[C@@H](Cc2ccccc2)C(=O)N[C@@H](CCCCN)C(=O)N[C@@H](CC(C)C)C(=O)N[C@@H](CC(C)C)C(=O)N[C@@H](CCCCN)C(=O)N[C@@H](CCCNC(=N)N)C(=O)N[C@@H](Cc2ccc(O)cc2)C(=O)N[C@@H](Cc2c[nH]c3ccccc23)C(=O)N[C@@H](CCCNC(=N)N)C(=O)N[C@@H](CCC(N)=O)C(=O)N[C@@H](CC(C)C)C(=O)N[C@@H](CCCCN)C(=O)N[C@@H](CCCCN)C(=O)N2CCC[C@H]2C(=O)N[C@H](C(=O)N[C@@H](CCCNC(=N)N)C(N)=O)C(C)C)C(C)C)NC(=O)[C@H](C(C)C)NC(=O)[C@H](CCCNC(=N)N)NC(=O)[C@H](CCCCN)NC1=O (Ac-[S5]KRV[S5]KRVFKLLKRYWRQLKKPVR-NH2; staple (Z) 1-5)
MIC (Klebsiella pneumoniae): 38 µg/mL (≈ 11.8 µM)
MIC (Staphylococcus aureus): 2.5 µg/mL (≈ 0.777 µM)
MIC (Pseudomonas aeruginosa): 2.6 µg/mL (≈ 0.808 µM)
MIC (Streptococcus pneumoniae): 37.7 µg/mL (≈ 11.7 µM)

CC(=O)N[C@@H](CC(C)C)C(=O)N[C@@H](CCCCN)C(=O)N[C@@H](CCCNC(=N)N)C(=O)N[C@H](C(=O)N[C@@H](Cc1c[nH]c2ccccc12)C(=O)N[C@@H](CCCCN)C(=O)N[C@@H](CCCNC(=N)N)C(=O)N[C@H](C(=O)N[C@@H](Cc1ccccc1)C(=O)N[C@@H](CCCCN)C(=O)N[C@@H](CC(C)C)C(=O)N[C@@]1(C)CCC/C=C\CCC[C@@](C)(C(=O)N[C@@H](CCCNC(=N)N)C(=O)N[C@@H](CCC(N)=O)C(=O)N[C@@H](CC(C)C)C(=O)N[C@@H](CCCCN)C(=O)N[C@@H](CCCCN)C(=O)N2CCC[C@H]2C(=O)N[C@H](C(=O)N[C@@H](CCCNC(=N)N)C(N)=O)C(C)C)NC(=O)[C@H](Cc2ccc(O)cc2)NC(=O)[C@H](CCCNC(=N)N)NC(=O)[C@H](CCCCN)NC1=O)C(C)C)C(C)C (Ac-LKRVWKRVFKL[S5]KRY[S5]RQLKKPVR-NH2; staple (Z) 12-16)
MIC (Klebsiella pneumoniae): 38 µg/mL (≈ 11.8 µM)
MIC (Staphylococcus aureus): 9.7 µg/mL (≈ 3.01 µM)
MIC (Pseudomonas aeruginosa): 5 µg/mL (≈ 1.55 µM)
MIC (Streptococcus pneumoniae): 4.7 µg/mL (≈ 1.46 µM)

CC(=O)N[C@@H](CC(C)C)C(=O)N[C@@H](CCCCN)C(=O)N[C@@H](CCCNC(=N)N)C(=O)N[C@H](C(=O)N[C@@H](Cc1c[nH]c2ccccc12)C(=O)N[C@@H](CCCCN)C(=O)N[C@@H](CCCNC(=N)N)C(=O)N[C@H](C(=O)N[C@@H](Cc1ccccc1)C(=O)N[C@@H](CCCCN)C(=O)N[C@@]1(C)CCC/C=C\CCC[C@@](C)(C(=O)N[C@@H](Cc2c[nH]c3ccccc23)C(=O)N[C@@H](CCCNC(=N)N)C(=O)N[C@@H](CCC(N)=O)C(=O)N[C@@H](CC(C)C)C(=O)N[C@@H](CCCCN)C(=O)N[C@@H](CCCCN)C(=O)N2CCC[C@H]2C(=O)N[C@H](C(=O)N[C@@H](CCCNC(=N)N)C(N)=O)C(C)C)NC(=O)[C@H](CCCNC(=N)N)NC(=O)[C@H](CCCCN)NC(=O)[C@H](CC(C)C)NC1=O)C(C)C)C(C)C (Ac-LKRVWKRVFK[S5]LKR[S5]WRQLKKPVR-NH2; staple (Z) 11-15)
MIC (Klebsiella pneumoniae): 38 µg/mL (≈ 11.7 µM)
MIC (Staphylococcus aureus): 2.5 µg/mL (≈ 0.771 µM)
MIC (Pseudomonas aeruginosa): 38.1 µg/mL (≈ 11.8 µM)
MIC (Streptococcus pneumoniae): 37.7 µg/mL (≈ 11.6 µM)

CC(=O)N[C@@H](CC(C)C)C(=O)N[C@@H](CCCCN)C(=O)N[C@@H](CCCNC(=N)N)C(=O)N[C@H](C(=O)N[C@@H](Cc1c[nH]c2ccccc12)C(=O)N[C@@H](CCCCN)C(=O)N[C@@H](CCCNC(=N)N)C(=O)N[C@H](C(=O)N[C@@H](Cc1ccccc1)C(=O)N[C@@H](CCCCN)C(=O)N[C@@H](CC(C)C)C(=O)N[C@]1(C)CCCCCC/C=C\CCC[C@@](C)(C(=O)N[C@@H](CCCCN)C(=O)N[C@@H](CCCCN)C(=O)N2CCC[C@H]2C(=O)N[C@H](C(=O)N[C@@H](CCCNC(=N)N)C(N)=O)C(C)C)NC(=O)[C@H](CCC(N)=O)NC(=O)[C@H](CCCNC(=N)N)NC(=O)[C@H](Cc2c[nH]c3ccccc23)NC(=O)[C@H](Cc2ccc(O)cc2)NC(=O)[C@H](CCCNC(=N)N)NC(=O)[C@H](CCCCN)NC1=O)C(C)C)C(C)C (Ac-LKRVWKRVFKL[R8]KRYWRQ[S5]KKPVR-NH2; staple (Z) 12-19)
MIC (Klebsiella pneumoniae): 38 µg/mL (≈ 11.4 µM)
MIC (Staphylococcus aureus): 4.9 µg/mL (≈ 1.47 µM)
MIC (Pseudomonas aeruginosa): 2.6 µg/mL (≈ 0.78 µM)
MIC (Streptococcus pneumoniae): 4.7 µg/mL (≈ 1.41 µM)

CC(=O)N[C@@H](CC(C)C)C(=O)N[C@@H](CCCCN)C(=O)N[C@@H](CCCNC(=N)N)C(=O)N[C@]1(C)CCCCCC/C=C\CCC[C@@](C)(C(=O)N[C@@H](CC(C)C)C(=O)N[C@@H](CCCCN)C(=O)N[C@@H](CCCNC(=N)N)C(=O)N[C@@H](Cc2ccc(O)cc2)C(=O)N[C@@H](Cc2c[nH]c3ccccc23)C(=O)N[C@@H](CCCNC(=N)N)C(=O)N[C@@H](CCC(N)=O)C(=O)N[C@@H](CC(C)C)C(=O)N[C@@H](CCCCN)C(=O)N[C@@H](CCCCN)C(=O)N2CCC[C@H]2C(=O)N[C@H](C(=O)N[C@@H](CCCNC(=N)N)C(N)=O)C(C)C)NC(=O)[C@H](CCCCN)NC(=O)[C@H](Cc2ccccc2)NC(=O)[C@H](C(C)C)NC(=O)[C@H](CCCNC(=N)N)NC(=O)[C@H](CCCCN)NC(=O)[C@H](Cc2c[nH]c3ccccc23)NC1=O (Ac-LKR[R8]WKRVFK[S5]LKRYWRQLKKPVR-NH2; staple (Z) 4-11)
MIC (Klebsiella pneumoniae): 38 µg/mL (≈ 11.4 µM)
MIC (Staphylococcus aureus): 4.9 µg/mL (≈ 1.46 µM)
MIC (Pseudomonas aeruginosa): 5 µg/mL (≈ 1.49 µM)
MIC (Streptococcus pneumoniae): 37.7 µg/mL (≈ 11.3 µM)

CC(=O)N[C@@H](CC(C)C)C(=O)N[C@@H](CCCCN)C(=O)N[C@@H](CCCNC(=N)N)C(=O)N[C@H](C(=O)N[C@@H](Cc1c[nH]c2ccccc12)C(=O)N[C@@H](CCCCN)C(=O)N[C@@H](CCCNC(=N)N)C(=O)N[C@]1(C)CCCCCC/C=C\CCC[C@@](C)(C(=O)N[C@@H](Cc2c[nH]c3ccccc23)C(=O)N[C@@H](CCCNC(=N)N)C(=O)N[C@@H](CCC(N)=O)C(=O)N[C@@H](CC(C)C)C(=O)N[C@@H](CCCCN)C(=O)N[C@@H](CCCCN)C(=O)N2CCC[C@H]2C(=O)N[C@H](C(=O)N[C@@H](CCCNC(=N)N)C(N)=O)C(C)C)NC(=O)[C@H](CCCNC(=N)N)NC(=O)[C@H](CCCCN)NC(=O)[C@H](CC(C)C)NC(=O)[C@H](CC(C)C)NC(=O)[C@H](CCCCN)NC(=O)[C@H](Cc2ccccc2)NC1=O)C(C)C (Ac-LKRVWKR[R8]FKLLKR[S5]WRQLKKPVR-NH2; staple (Z) 8-15)
MIC (Klebsiella pneumoniae): 38 µg/mL (≈ 11.5 µM)
MIC (Staphylococcus aureus): 9.7 µg/mL (≈ 2.94 µM)
MIC (Pseudomonas aeruginosa): 5 µg/mL (≈ 1.52 µM)
MIC (Streptococcus pneumoniae): 19 µg/mL (≈ 5.76 µM)

CC(=O)N[C@@H](CC(C)C)C(=O)N[C@@H](CCCCN)C(=O)N[C@@H](CCCNC(=N)N)C(=O)N[C@H](C(=O)N[C@@H](Cc1c[nH]c2ccccc12)C(=O)N[C@@H](CCCCN)C(=O)N[C@@H](CCCNC(=N)N)C(=O)N[C@@]1(C)CCC/C=C\CCC[C@@](C)(C(=O)N[C@@H](CCCCN)C(=O)N[C@@H](CCCNC(=N)N)C(=O)N[C@@H](Cc2ccc(O)cc2)C(=O)N[C@@H](Cc2c[nH]c3ccccc23)C(=O)N[C@@H](CCCNC(=N)N)C(=O)N[C@@H](CCC(N)=O)C(=O)N[C@@H](CC(C)C)C(=O)N[C@@H](CCCCN)C(=O)N[C@@H](CCCCN)C(=O)N2CCC[C@H]2C(=O)N[C@H](C(=O)N[C@@H](CCCNC(=N)N)C(N)=O)C(C)C)NC(=O)[C@H](CC(C)C)NC(=O)[C@H](CCCCN)NC(=O)[C@H](Cc2ccccc2)NC1=O)C(C)C (Ac-LKRVWKR[S5]FKL[S5]KRYWRQLKKPVR-NH2; staple (Z) 8-12)
MIC (Klebsiella pneumoniae): 38 µg/mL (≈ 11.5 µM)
MIC (Staphylococcus aureus): 2.5 µg/mL (≈ 0.756 µM)
MIC (Pseudomonas aeruginosa): 5 µg/mL (≈ 1.51 µM)
MIC (Streptococcus pneumoniae): 37.7 µg/mL (≈ 11.4 µM)

CC(=O)N[C@@H](CC(C)C)C(=O)N[C@@H](CCCCN)C(=O)N[C@@H](CCCNC(=N)N)C(=O)N[C@H](C(=O)N[C@@H](Cc1c[nH]c2ccccc12)C(=O)N[C@@H](CCCCN)C(=O)N[C@@H](CCCNC(=N)N)C(=O)N[C@H](C(=O)N[C@]1(C)CCCCCC/C=C\CCC[C@@](C)(C(=O)N[C@@H](CCCNC(=N)N)C(=O)N[C@@H](CCC(N)=O)C(=O)N[C@@H](CC(C)C)C(=O)N[C@@H](CCCCN)C(=O)N[C@@H](CCCCN)C(=O)N2CCC[C@H]2C(=O)N[C@H](C(=O)N[C@@H](CCCNC(=N)N)C(N)=O)C(C)C)NC(=O)[C@H](Cc2ccc(O)cc2)NC(=O)[C@H](CCCNC(=N)N)NC(=O)[C@H](CCCCN)NC(=O)[C@H](CC(C)C)NC(=O)[C@H](CC(C)C)NC(=O)[C@H](CCCCN)NC1=O)C(C)C)C(C)C (Ac-LKRVWKRV[R8]KLLKRY[S5]RQLKKPVR-NH2; staple (Z) 9-16)
MIC (Klebsiella pneumoniae): 38 µg/mL (≈ 11.8 µM)
MIC (Staphylococcus aureus): 9.7 µg/mL (≈ 3.01 µM)
MIC (Pseudomonas aeruginosa): 38 µg/mL (≈ 11.8 µM)
MIC (Streptococcus pneumoniae): 9.6 µg/mL (≈ 2.98 µM)
